In brackets after ≈: the same amount, converted by molar mass.
Legend:
Assay type in all cases: functional
Salmonella typhi [1] = test: Antibacterial activity against Salmonella enterica subsp. enterica serovar Typhi MTCC 733 assessed as growth inhibition at 3.12 to 50 ug/mL after 24 hr by agar disk diffusion method
[2] = system: Mycobacterium tuberculosis; test: Antimycobacterial activity against Mycobacterium tuberculosis H37Rv assessed as growth inhibition at MIC after 12 to 28 days by Lowenstein and Jensen agar dilution method
[3] = system: Mycobacterium tuberculosis; test: Antimycobacterial activity against Mycobacterium tuberculosis H37Rv assessed as growth inhibition measured within 10 days by BACTEC MGIT method; conditions: 240 h
Proteus vulgaris [4] = test: Antibacterial activity against Proteus vulgaris MTCC 1771 assessed as growth inhibition at 3.12 to 50 ug/mL after 24 hr by agar disk diffusion method
Aspergillus clavatus [5] = test: Antifungal activity against Aspergillus clavatus MTCC 1323 assessed as growth inhibition at 3.12 to 50 ug/mL after 24 hr by agar disk diffusion method
Shigella flexneri [6] = test: Antibacterial activity against Shigella flexneri MTCC 1457 assessed as growth inhibition at 3.12 to 50 ug/mL after 24 hr by agar disk diffusion method
Bacillus cereus [7] = test: Antibacterial activity against Bacillus cereus MTCC 430 assessed as growth inhibition after 24 hr by agar streak dilution method; conditions: MTCC 430, 24 h
Escherichia coli [8] = test: Antibacterial activity against Escherichia coli MTCC 739 assessed as growth inhibition after 24 hr by agar streak dilution method; conditions: MTCC 739, 24 h
Aspergillus fumigatus [9] = test: Antifungal activity against Aspergillus fumigatus MTCC 343 assessed as growth inhibition after 48 hr by agar streak dilution method; conditions: MTCC 343, 48 h
Aspergillus niger [10] = test: Antifungal activity against Aspergillus niger MTCC 282 assessed as growth inhibition at 3.12 to 50 ug/mL after 24 hr by agar disk diffusion method
Salmonella typhi [11] = test: Antibacterial activity against Salmonella enterica subsp. enterica serovar Typhi MTCC 733 assessed as growth inhibition after 24 hr by agar streak dilution method; conditions: MTCC 733, 24 h
Pseudomonas aeruginosa [12] = test: Antibacterial activity against Pseudomonas aeruginosa MTCC 741 assessed as growth inhibition after 24 hr by agar streak dilution method; conditions: MTCC 741, 24 h
Aspergillus niger [13] = test: Antifungal activity against Aspergillus niger MTCC 282 assessed as growth inhibition after 48 hr by agar streak dilution method; conditions: MTCC 282, 48 h
Staphylococcus aureus [14] = test: Antibacterial activity against Staphylococcus aureus MTCC 96 assessed as growth inhibition at 3.12 to 50 ug/mL after 24 hr by agar disk diffusion method
[15] = system: Mycobacterium tuberculosis; test: Antimycobacterial activity against Mycobacterium tuberculosis H37Rv assessed as growth inhibition after 12 to 28 days by Lowenstein and Jensen agar dilution method
Klebsiella pneumoniae [16] = test: Antibacterial activity against Klebsiella pneumoniae MTCC 109 assessed as growth inhibition at 3.12 to 50 ug/mL after 24 hr by agar disk diffusion method
Escherichia coli [17] = test: Antibacterial activity against Escherichia coli MTCC 739 assessed as growth inhibition at 3.12 to 50 ug/mL after 24 hr by agar disk diffusion method
Proteus vulgaris [18] = test: Antibacterial activity against Proteus vulgaris MTCC 1771 assessed as growth inhibition after 24 hr by agar streak dilution method; conditions: MTCC 1771, 24 h
Shigella flexneri [19] = test: Antibacterial activity against Shigella flexneri MTCC 1457 assessed as growth inhibition after 24 hr by agar streak dilution method; conditions: MTCC 1457, 24 h
Staphylococcus aureus [20] = test: Antibacterial activity against Staphylococcus aureus MTCC 96 assessed as growth inhibition after 24 hr by agar streak dilution method; conditions: MTCC 96, 24 h
Candida albicans [21] = test: Antifungal activity against Candida albicans MTCC 183 assessed as growth inhibition at 3.12 to 50 ug/mL after 24 hr by agar disk diffusion method
Pseudomonas aeruginosa [22] = test: Antibacterial activity against Pseudomonas aeruginosa MTCC 741 assessed as growth inhibition at 3.12 to 50 ug/mL after 24 hr by agar disk diffusion method
Candida albicans [23] = test: Antifungal activity against Candida albicans MTCC 183 assessed as growth inhibition after 48 hr by agar streak dilution method; conditions: MTCC 183, 48 h
Aspergillus clavatus [24] = test: Antifungal activity against Aspergillus clavatus MTCC 1323 assessed as growth inhibition after 48 hr by agar streak dilution method; conditions: MTCC 1323, 48 h
Klebsiella pneumoniae [25] = test: Antibacterial activity against Klebsiella pneumoniae MTCC 109 assessed as growth inhibition after 24 hr by agar streak dilution method; conditions: MTCC 109, 24 h
Bacillus cereus [26] = test: Antibacterial activity against Bacillus cereus MTCC 430 assessed as growth inhibition at 3.12 to 50 ug/mL after 24 hr by agar disk diffusion method
Aspergillus fumigatus [27] = test: Antifungal activity against Aspergillus fumigatus MTCC 343 assessed as growth inhibition at 3.12 to 50 ug/mL after 24 hr by agar disk diffusion method

CC1CC(C)CN(c2nc(-c3ccc(NCC(=O)Nc4nc5ccc([N+](=O)[O-])cc5s4)cc3)nc(N3CC(C)CC(C)C3)n2)C1 (stereo not drawn)
inhibition zone (IZ) (Salmonella typhi [1]): 19 mm | growth inhibition (GI) [2]: 98% | MIC [3]: > 6.25 µg/mL | inhibition zone (IZ) (Proteus vulgaris [4]): 19 mm | inhibition zone (IZ) (Aspergillus clavatus [5]): 28 mm | inhibition zone (IZ) (Shigella flexneri [6]): 21 mm | MIC (Bacillus cereus [7]): 12.5 µg/mL (≈ 19.8 µM) | MIC (Escherichia coli [8]): 50 µg/mL (≈ 79.4 µM) | MIC (Aspergillus fumigatus [9]): 50 µg/mL (≈ 79.4 µM) | inhibition zone (IZ) (Aspergillus niger [10]): 23 mm | MIC (Salmonella typhi [11]): 50 µg/mL (≈ 79.4 µM) | MIC (Pseudomonas aeruginosa [12]): 50 µg/mL (≈ 79.4 µM) | MIC (Aspergillus niger [13]): 12.5 µg/mL (≈ 19.8 µM) | inhibition zone (IZ) (Staphylococcus aureus [14]): 22 mm | MIC [15]: 50 µg/mL (≈ 79.4 µM) | inhibition zone (IZ) (Klebsiella pneumoniae [16]): 18 mm | inhibition zone (IZ) (Escherichia coli [17]): 18 mm | MIC (Proteus vulgaris [18]): 50 µg/mL (≈ 79.4 µM) | MIC (Shigella flexneri [19]): 50 µg/mL (≈ 79.4 µM) | MIC (Staphylococcus aureus [20]): 12.5 µg/mL (≈ 19.8 µM) | inhibition zone (IZ) (Candida albicans [21]): 16 mm | inhibition zone (IZ) (Pseudomonas aeruginosa [22]): 18 mm | MIC (Candida albicans [23]): 50 µg/mL (≈ 79.4 µM) | MIC (Aspergillus clavatus [24]): 25 µg/mL (≈ 39.7 µM) | MIC (Klebsiella pneumoniae [25]): 50 µg/mL (≈ 79.4 µM) | inhibition zone (IZ) (Bacillus cereus [26]): 26 mm | inhibition zone (IZ) (Aspergillus fumigatus [27]): 22 mm

CC1CC(C)CN(c2nc(-c3ccc(NCC(=O)Nc4nc5ccc(C#N)cc5s4)cc3)nc(N3CC(C)CC(C)C3)n2)C1 (stereo not drawn)
inhibition zone (IZ) (Salmonella typhi [1]): 18 mm | growth inhibition (GI) [2]: 95% | MIC [3]: > 6.25 µg/mL | inhibition zone (IZ) (Proteus vulgaris [4]): 22 mm | inhibition zone (IZ) (Aspergillus clavatus [5]): 16 mm | inhibition zone (IZ) (Shigella flexneri [6]): 22 mm | MIC (Bacillus cereus [7]): 50 µg/mL (≈ 82 µM) | MIC (Escherichia coli [8]): 6.25 µg/mL (≈ 10.2 µM) | MIC (Aspergillus fumigatus [9]): 50 µg/mL (≈ 82 µM) | inhibition zone (IZ) (Aspergillus niger [10]): 19 mm | MIC (Salmonella typhi [11]): 50 µg/mL (≈ 82 µM) | MIC (Pseudomonas aeruginosa [12]): 50 µg/mL (≈ 82 µM) | MIC (Aspergillus niger [13]): 25 µg/mL (≈ 41 µM) | inhibition zone (IZ) (Staphylococcus aureus [14]): 24 mm | MIC [15]: 100 µg/mL (≈ 164 µM) | inhibition zone (IZ) (Klebsiella pneumoniae [16]): 27 mm | inhibition zone (IZ) (Escherichia coli [17]): 25 mm | MIC (Proteus vulgaris [18]): 25 µg/mL (≈ 41 µM) | MIC (Shigella flexneri [19]): 50 µg/mL (≈ 82 µM) | MIC (Staphylococcus aureus [20]): 6.25 µg/mL (≈ 10.2 µM) | inhibition zone (IZ) (Candida albicans [21]): <10 mm | inhibition zone (IZ) (Pseudomonas aeruginosa [22]): 18 mm | MIC (Candida albicans [23]): > 50 µg/mL | MIC (Aspergillus clavatus [24]): 50 µg/mL (≈ 82 µM) | MIC (Klebsiella pneumoniae [25]): 25 µg/mL (≈ 41 µM) | inhibition zone (IZ) (Bacillus cereus [26]): 22 mm | inhibition zone (IZ) (Aspergillus fumigatus [27]): 22 mm

Cc1ccc2nc(NC(=O)CNc3ccc(-c4nc(N5CC(C)CC(C)C5)nc(N5CC(C)CC(C)C5)n4)cc3)sc2c1 (stereo not drawn)
inhibition zone (IZ) (Salmonella typhi [1]): <10 mm | growth inhibition (GI) [2]: 97% | MIC [3]: > 6.25 µg/mL | inhibition zone (IZ) (Proteus vulgaris [4]): 20 mm | inhibition zone (IZ) (Aspergillus clavatus [5]): <10 mm | inhibition zone (IZ) (Shigella flexneri [6]): 12 mm | MIC (Bacillus cereus [7]): 50 µg/mL (≈ 83.5 µM) | MIC (Escherichia coli [8]): 50 µg/mL (≈ 83.5 µM) | MIC (Aspergillus fumigatus [9]): > 50 µg/mL | inhibition zone (IZ) (Aspergillus niger [10]): <10 mm | MIC (Salmonella typhi [11]): 50 µg/mL (≈ 83.5 µM) | MIC (Pseudomonas aeruginosa [12]): 50 µg/mL (≈ 83.5 µM) | MIC (Aspergillus niger [13]): 50 µg/mL (≈ 83.5 µM) | inhibition zone (IZ) (Staphylococcus aureus [14]): 15 mm | MIC [15]: 250 µg/mL (≈ 417 µM) | inhibition zone (IZ) (Klebsiella pneumoniae [16]): 16 mm | inhibition zone (IZ) (Escherichia coli [17]): 16 mm | MIC (Proteus vulgaris [18]): 50 µg/mL (≈ 83.5 µM) | MIC (Shigella flexneri [19]): 50 µg/mL (≈ 83.5 µM) | MIC (Staphylococcus aureus [20]): 50 µg/mL (≈ 83.5 µM) | inhibition zone (IZ) (Candida albicans [21]): 13 mm | inhibition zone (IZ) (Pseudomonas aeruginosa [22]): 15 mm | MIC (Candida albicans [23]): 50 µg/mL (≈ 83.5 µM) | MIC (Aspergillus clavatus [24]): > 50 µg/mL | MIC (Klebsiella pneumoniae [25]): 50 µg/mL (≈ 83.5 µM) | inhibition zone (IZ) (Bacillus cereus [26]): 19 mm | inhibition zone (IZ) (Aspergillus fumigatus [27]): <10 mm

COc1ccc2nc(NC(=O)CNc3ccc(-c4nc(N5CC(C)CC(C)C5)nc(N5CC(C)CC(C)C5)n4)cc3)sc2c1 (stereo not drawn)
inhibition zone (IZ) (Salmonella typhi [1]): 20 mm | growth inhibition (GI) [2]: 98% | MIC [3]: > 6.25 µg/mL | inhibition zone (IZ) (Proteus vulgaris [4]): 27 mm | inhibition zone (IZ) (Aspergillus clavatus [5]): 23 mm | inhibition zone (IZ) (Shigella flexneri [6]): 25 mm | MIC (Bacillus cereus [7]): 12.5 µg/mL (≈ 20.3 µM) | MIC (Escherichia coli [8]): 25 µg/mL (≈ 40.7 µM) | MIC (Aspergillus fumigatus [9]): > 50 µg/mL | inhibition zone (IZ) (Aspergillus niger [10]): 19 mm | MIC (Salmonella typhi [11]): 50 µg/mL (≈ 81.3 µM) | MIC (Pseudomonas aeruginosa [12]): 50 µg/mL (≈ 81.3 µM) | MIC (Aspergillus niger [13]): 25 µg/mL (≈ 40.7 µM) | inhibition zone (IZ) (Staphylococcus aureus [14]): 26 mm | MIC [15]: 12.5 µg/mL (≈ 20.3 µM) | inhibition zone (IZ) (Klebsiella pneumoniae [16]): 23 mm | inhibition zone (IZ) (Escherichia coli [17]): 20 mm | MIC (Proteus vulgaris [18]): 6.25 µg/mL (≈ 10.2 µM) | MIC (Shigella flexneri [19]): 12.5 µg/mL (≈ 20.3 µM) | MIC (Staphylococcus aureus [20]): 1.56 µg/mL (≈ 2.54 µM) | inhibition zone (IZ) (Candida albicans [21]): 25 mm | inhibition zone (IZ) (Pseudomonas aeruginosa [22]): 20 mm | MIC (Candida albicans [23]): 12.5 µg/mL (≈ 20.3 µM) | MIC (Aspergillus clavatus [24]): 50 µg/mL (≈ 81.3 µM) | MIC (Klebsiella pneumoniae [25]): 50 µg/mL (≈ 81.3 µM) | inhibition zone (IZ) (Bacillus cereus [26]): 25 mm | inhibition zone (IZ) (Aspergillus fumigatus [27]): <10 mm

Reference: ChEMBL document CHEMBL3046161, “Synthesis of potential antitubercular and antimicrobial s-triazine-based scaffolds via Suzuki cross-coupling reaction” (2013)
